Assay results reported in paper PMC12749166, “Fragment-based drug design of a bacterial kinase inhibitor capable of increasing the antibiotic sensitivity of clinical isolates” (Communications Chemistry, 2025).
Read-outs that look alike come from different tables or passages of the source.

Experiments:
APH(2”)-IVa [1] = test system: APH(2”)-IVa; set-up: method as in PMID 19158087; settings: read-out: Michaelis constant (Km) for ATP; cited from earlier work
APH(3’)-IIb = test system: APH(3’)-IIb; set-up: method as in earlier work; settings: read-out: Michaelis constant (Km) for ATP; cited from earlier work
APH(3’)-IIa = settings: read-out: Michaelis constant (Km) for ATP; cited from earlier work
APH(3’)-IIIa [2] = target: APH(3’)-IIIa; set-up: method as in PMID 21573013, PMID 15388945; settings: read-out: Inhibition constant; cited from earlier work
APH(9)-Ia = target: APH(9)-Ia; set-up: method as in PMID 21573013, PMID 15388945; settings: read-out: Inhibition constant; cited from earlier work
APH(3’)-Ia = target: APH(3’)-Ia; set-up: method as in PMID 23758273; settings: read-out: Inhibition constant; cited from earlier work
[3] = test system: resistant hyper-permeable efflux mutant of E. coli (ΔtolC ΔbamB); settings: cited from earlier work
APH(2”)-IVa [4] = target: T1, APH(2”)-IVa (Enterococcus casseliflavus, UniProt O68183); assay: biochemical; type: binding; settings: read-out: ΔTm (°C)
T1 sequence (O68183 1-301): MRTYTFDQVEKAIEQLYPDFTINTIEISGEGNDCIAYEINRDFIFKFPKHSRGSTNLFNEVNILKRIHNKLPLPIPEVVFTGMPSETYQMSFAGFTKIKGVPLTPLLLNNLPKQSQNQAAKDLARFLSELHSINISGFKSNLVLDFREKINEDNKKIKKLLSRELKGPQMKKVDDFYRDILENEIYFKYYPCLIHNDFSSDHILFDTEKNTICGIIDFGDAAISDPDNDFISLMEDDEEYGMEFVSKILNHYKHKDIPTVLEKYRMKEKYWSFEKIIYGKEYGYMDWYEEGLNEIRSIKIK
Procedure: Thermal shift assays were performed using an RTqPCR machine Mx3005P (Stratagene) in 96-well plates (Thermo-Fast low Profile, ThermoScientific) by mixing the protein at 5 µM, SYPRO® Orange (Sigma Aldrich) at […], and fragments at 500 µM. Fluorescence was followed with Cy3 and SYAL filters. Denaturation curves were collected using MxPro-Mx3005P v4.10 software and analyzed using the implemented version of wTSA-CRAFT[36].

APH(2”)-IVa [5] = target: T1, APH(2”)-IVa; assay: biochemical; type: binding
Procedure: ITC experiments were performed on three different machines: a MicroCal VP-ITC (GE Healthcare), a MicroCal PEAQ-ITC (Malvern), or a MicroCal iTC200 (Malvern). The architecture and principles are similar for the three different systems. The experiments were carried out in Buffer HEPES at 25 °C. Titrations consisted of twenty injections of 1.5 µL inhibitors, every 120 seconds, into the measuring cell using the injection syringe rotating at 750 rpm. The data were analyzed using the MicroCal PEAQ-ITC software (v. 1.52, Malvern) using the single-site binding model to fit the raw data. The standard error of the Kd value was determined from measurements made on distinct samples (n indicated in the text).

APH(2”)-IVa [6] = target: T1, APH(2”)-IVa
APH(2”)-IVa [7] = target: T1, APH(2”)-IVa; assay: biochemical; settings: Ki (µM), inhibition constant, ATP-competitive; 0-2 mM MgATP, 100 µM kanamycin A, global fitting
12 different APHs = target: 12 different APHs; set-up: method as in PMID 23758273; settings: all the APHs tested; cited from earlier work
APH(2”)-Ib = test system: APH(2”)-Ib; set-up: method as in PMID 11514228; settings: at 1 mM; cited from earlier work
APH(3’)-IIIa [8] = test system: APH(3’)-IIIa; set-up: method as in PMID 11514228; settings: cited from earlier work
[9] = test system: P. aeruginosa clinical isolates; assay: MIC by broth micro-dilution; type: cell-based
S. aureus C0032 [10] = assay: MIC by broth micro-dilution; type: cell-based; settings: S. aureus C0032, aph(3')-IIIa ant(6)
P. aeruginosa C0307 = assay: Checkerboard assay of 83 with kanamycin A; type: cell-based; settings: for MIC of kanamycin A: [83] 0 µg mL^−1, 18 h at 37 °C; for checkerboard well reading (growth): 83 0 µg.mL-1
S. aureus C0032 [11] = assay: Checkerboard assay of 83 with kanamycin A; type: cell-based; settings: for checkerboard well reading (growth): Supp. Figure 3 C, 83 0 µg.mL-1

Nc1ncnc2c1ncn2[C@@H]1O[C@H](COP(=O)(O)OP(=O)(O)OP(=O)(O)O)[C@@H](O)[C@H]1O [ATP, adenosine 5’-triphosphate]
Km (APH(2”)-IVa [1]): 101 µM
Km (APH(3’)-IIb): 24 µM
Km (APH(3’)-IIa): 45 µM

NCCNS(=O)(=O)c1ccc(Cl)c2ccncc12 [CKI-7]
Ki (APH(3’)-IIIa [2]): 66 µM
Ki (APH(9)-Ia): 159 µM

CC(C)(C)n1nc(-c2cccc3ccccc23)c2c(N)ncnc21 [Compound 1-NA-PP1]
Ki (APH(3’)-Ia): 21.5 µM
Rescue activity of kanamycin A [3]: demonstrated rescue activity of kanamycin A

CC(C)(C)n1nc(Cc2cccc3ccccc23)c2c(N)ncnc21 [Compound 1-NM-PP1]
Ki (APH(3’)-Ia): 34.4 µM
Rescue activity of kanamycin A [3]: demonstrated rescue activity of kanamycin A

O=C(O)c1cc(NC2CC2)ncc1Cl [Compound 36]
ΔTm at 500 µM (APH(2”)-IVa [4]): 2.69 °C
Kd (APH(2”)-IVa [5]): 37.8 µM
kss (APH(2”)-IVa [6]; [36] = 20 µM, [MgATP] 0.1 mM): 0.130 s⁻¹
kss (APH(2”)-IVa [6]; [36] = 20 µM, [MgATP] 0.2 mM): 0.200 s⁻¹
kss (APH(2”)-IVa [6]; [36] = 20 µM, [MgATP] 0.3 mM): 0.240 s⁻¹
kss (APH(2”)-IVa [6]; [36] = 20 µM, [MgATP] 0.4 mM): 0.278 s⁻¹
kss (APH(2”)-IVa [6]; [36] = 50 µM, [MgATP] 0.1 mM): 0.097 s⁻¹
kss (APH(2”)-IVa [6]; [36] = 50 µM, [MgATP] 0.2 mM): 0.138 s⁻¹
kss (APH(2”)-IVa [6]; [36] = 50 µM, [MgATP] 0.3 mM): 0.175 s⁻¹
kss (APH(2”)-IVa [6]; [36] = 50 µM, [MgATP] 0.4 mM): 0.207 s⁻¹
kss (APH(2”)-IVa [6]; [36] = 100 µM, [MgATP] 0.1 mM): 0.067 s⁻¹
kss (APH(2”)-IVa [6]; [36] = 100 µM, [MgATP] 0.2 mM): 0.101 s⁻¹
kss (APH(2”)-IVa [6]; [36] = 100 µM, [MgATP] 0.3 mM): 0.133 s⁻¹
kss (APH(2”)-IVa [6]; [36] = 100 µM, [MgATP] 0.4 mM): 0.156 s⁻¹
Ki (APH(2”)-IVa [7]): 18.2 µM

O=c1c(O)c(-c2ccc(O)c(O)c2)oc2cc(O)cc(O)c12 [Quercetin, quercetin]
Ki (12 different APHs): 0.07 to 25 µM

COC[C@H]1OC(=O)c2coc3c2[C@@]1(C)C1=C(C3=O)[C@@H]2CCC(=O)[C@@]2(C)C[C@H]1OC(C)=O [Wortmannin, wortmannin]
Inhibition (APH(2”)-Ib): 90%
Inhibition (APH(3’)-IIIa [8]): did not affect

kanamycin A [reference compound]
MIC ([9]; P. aeruginosa 1676, aph(3')-IIb): 128 µg/mL
MIC ([9]; P. aeruginosa 1761, aph(3')-IIb): 128 µg/mL
MIC ([9]; P. aeruginosa 1766, aph(3')-IIb): 128 µg/mL
MIC ([9]; P. aeruginosa 1781, aph(3')-IIb): 512 µg/mL
MIC ([9]; P. aeruginosa 1869, aph(3')-IIb aac(6')-Ib3): 1024 µg/mL
MIC ([9]; P. aeruginosa C0214, aph(3')-IIb): 256 to 512 µg/mL
MIC ([9]; P. aeruginosa C0307, aph(3')-IIb): 64 to 128 µg/mL
MIC ([9]; P. aeruginosa C0307, aph(3')-IIb, listed as Kanamycin A): 64 to 128 µg/mL
MIC (S. aureus C0032 [10]): 4096 µg/mL
MIC of kanamycin A (P. aeruginosa C0307; 0 µg mL^−1 imipenem): 64 µg/mL
MIC of kanamycin A (P. aeruginosa C0307; 0.05 µg mL^−1 imipenem): 64 µg/mL
checkerboard well reading (growth) (P. aeruginosa C0307; Supp. Figure 3 A, kanamycin A 2 µg.mL-1): 1.208
checkerboard well reading (growth) (P. aeruginosa C0307; Supp. Figure 3 A, kanamycin A 4 µg.mL-1): 1.193
checkerboard well reading (growth) (P. aeruginosa C0307; Supp. Figure 3 A, kanamycin A 8 µg.mL-1): 1.188
checkerboard well reading (growth) (P. aeruginosa C0307; Supp. Figure 3 A, kanamycin A 16 µg.mL-1): 1.223
checkerboard well reading (growth) (P. aeruginosa C0307; Supp. Figure 3 A, kanamycin A 32 µg.mL-1): 1.192
checkerboard well reading (growth) (P. aeruginosa C0307; Supp. Figure 3 A, kanamycin A 64 µg.mL-1): 0.162
checkerboard well reading (growth) (P. aeruginosa C0307; Supp. Figure 3 A, kanamycin A 128 µg.mL-1): 0.039
checkerboard well reading (growth) (P. aeruginosa C0307; Supp. Figure 3 B, kanamycin A 2 µg.mL-1): 1.210
checkerboard well reading (growth) (P. aeruginosa C0307; Supp. Figure 3 B, kanamycin A 4 µg.mL-1): 1.193
checkerboard well reading (growth) (P. aeruginosa C0307; Supp. Figure 3 B, kanamycin A 8 µg.mL-1): 1.143
checkerboard well reading (growth) (P. aeruginosa C0307; Supp. Figure 3 B, kanamycin A 16 µg.mL-1): 1.167
checkerboard well reading (growth) (P. aeruginosa C0307; Supp. Figure 3 B, kanamycin A 32 µg.mL-1): 1.151
checkerboard well reading (growth) (P. aeruginosa C0307; Supp. Figure 3 B, kanamycin A 64 µg.mL-1): 0.174
checkerboard well reading (growth) (P. aeruginosa C0307; Supp. Figure 3 B, kanamycin A 128 µg.mL-1): 0.043
MIC of kanamycin A (S. aureus C0032 [11]; 0.125 µg mL^−1 imipenem, [83] 0 µg mL^−1, 18 h at 37 °C): 4096 µg/mL
checkerboard well reading (growth) (S. aureus C0032 [11]; kanamycin A 2 µg.mL-1): 0.337
checkerboard well reading (growth) (S. aureus C0032 [11]; kanamycin A 4 µg.mL-1): 0.322
checkerboard well reading (growth) (S. aureus C0032 [11]; kanamycin A 8 µg.mL-1): 0.304
checkerboard well reading (growth) (S. aureus C0032 [11]; kanamycin A 16 µg.mL-1): 0.292
checkerboard well reading (growth) (S. aureus C0032 [11]; kanamycin A 32 µg.mL-1): 0.272
checkerboard well reading (growth) (S. aureus C0032 [11]; kanamycin A 64 µg.mL-1): 0.258
checkerboard well reading (growth) (S. aureus C0032 [11]; kanamycin A 128 µg.mL-1): 0.312
